Source: patent US10251841B2, “Polymeric depots for localization of agent to biological sites” (TRUSTEES OF BOSTON UNIVERSITY, priority 2011, dated 2019)

Key:
Experiment in all cases: Cell proliferation assay, MTT, 5 days
Details in all cases: media containing 10% FBS
[1] = tested on: Lewis Lung Carcinoma (LLC); assay type: cell-based, murine
Method: (§1) Melanoma B16 (murine), Calu 6 (human lung carcinoma), A549 (human lung carcinoma), LLC (murine Lewis Lung Carcinoma), NCI-H460 (human lung), MSTO-211H (human mesothelioma), MSTO-211H-Luc (luciferase transfected human mesothelioma), MCF7 (human breast), LMS05 (human sarcoma) were incubated (37° C., 5% CO2) with MEM (with 10% fetal bovine serum (FBS), 1% essential amino acids, and 1% Penicillin/Streptomyocin with L glutamine (Pen/Strep), F-12 HAM (with 10% FBS and 1% Pen/Strep), DMEM (with 10% FBS and 1% Pen/Strep) media, or DMEM (with 10% FBS and 1% GPS), with media changes once every three days. When not cultured, all cell lines were stored in RPMI freezing media at −80° C. (with 50% FBS, 40% RPMI and 10% dimethyl sulfoxide (DMSO)). Cell lines were trypsinized from the plates and seeded into 96 well plates at a concentration of 3000 cells per well. All cell lines were cultured for a period of at least seven days before being tested in cell uptake or proliferation assays etc.
(§2) Cell proliferation assays testing the effects of paclitaxel encapsulated within nanoparticles were performed using three tumor cell lines. Lewis Lung Carcinoma (LLC), Melanoma, and Calu6 (human lung cancer) cell lines were plated at 3,000 cells/well and when established, cultured in media with/without paclitaxel. […] At the end of 5 days, tumor cell proliferation was assessed via MTT analysis. […]

Melanoma = assay type: cell-based, murine
Method: as §1, §2

[2] = tested on: Calu6 (human lung cancer); assay type: cell-based
Method: as §1, §2

Measured: concentration that reliably inhibits growth

CC(=O)O[C@H]1C(=O)[C@@]2(C)[C@H]([C@H](OC(=O)c3ccccc3)[C@]3(O)C[C@H](OC(=O)[C@H](O)[C@@H](NC(=O)c4ccccc4)c4ccccc4)C(C)=C1C3(C)C)[C@]1(OC(C)=O)CO[C@@H]1C[C@@H]2O [paclitaxel]
1 to 10 ng/mL: all assays above
